The assay deals with T1, His6 tagged human recombinant FABP4 (Homo sapiens, UniProt P15090).
T1 construct: purchased Cayman Chemicals 10009549
In words: FABP4 TR-FRET assay: displacement of BODIPY FL C12 fatty acid. The settings on record: triplicates, inhibition of BODIPY FL C12 binding; for inhibition at 1 µM: 1 μM compound; for inhibition at 10 µM: 10 μM compound. An excerpt:
Activity of compounds with FABP4 was profiled using a Terbium (Tb) based time resolved fluorescence energy transfer (TR-FRET) assay. The assay measures the compound mediated displacement of the fluorescent fatty acid BODIPY FL C12 (Thermo Fisher; catalog number D3822) from His6 tagged human recombinant FABP4 (His6-FABP4; Cayman Chemicals, catalog number 10009549) via recording the energy transfer from TB donor molecule on anti-His6-tag antibody to acceptor BODIPY moiety. Briefly, compounds were prepared at a concentration of 0.362 mM and 0.0362 mM, and BODIPY FL C12 was prepared at 4.2 μM, in DMSO. 1.2 μL of each compound or DMSO (vehicle control) and 1.2 μL of BODIPY FL C12 were added into the wells of a 384-well black polypropylene plate. His6-FABP4 and Tb anti-His6 antibody were prepared in the assay buffer (25 mM Tris/HCl, pH 7.4, 0.4 mg/ml y-globulins, 0.010% NP-40, 1 mM DTT) at a concentration of 83 nM and 49.6 nM, respectively. The protein and antibody solutions were then mixed at a ratio of 34:7 (v/v) and incubated on ice for 30 minutes. The assay was initiated by adding 41 μL of the resulting protein/antibody solution into the wells containing the compounds and BODIPY FL C12. The plate was centrifuged and incubated at room temperature for 10 min. The TR-FRET signals were recorded using an EnVision Multilabel plate reader (PerkinElmer; TB excitation 320 nm, BODIPY FL C12 emission 520 nm; TB emission 615 nm). Relative fluorescence ratio (520 nm*10,000/615 nm) were used to calculate the compound mediated inhibition of BODIPY C12 FL fatty acid binding to FABP4. […] Glucose consumption and FABP4 inhibition is shown below in Table 3 below.
For orientation: TR-FRET usually uses a lanthanide donor and a delayed reading to cut background.

T1 sequence (P15090 whole entry): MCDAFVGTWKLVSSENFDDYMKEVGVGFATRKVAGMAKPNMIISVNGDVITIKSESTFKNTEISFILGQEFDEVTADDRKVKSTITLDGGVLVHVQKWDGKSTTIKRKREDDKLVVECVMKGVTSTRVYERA

`CCCCC1Cc2c(n(Cc3cccc(C#N)c3)c3c(C(=O)O)cccc23)C1` (stereo not shown) [2-butyl-4-[(3-cyanophenyl)methyl]-1H,2H,3H,4H-cyclopenta[b]indole-5-carboxylic acid]: the inhibition at 1 µM was found to be 62.1% and the inhibition at 10 µM was 85.1%.
For `CCCCCCC1CCCc2c(n(Cc3cccc(C#N)c3F)c3c(C(=O)O)cccc23)C1` (stereo not shown) [5-[(3-cyano-2-fluorophenyl)methyl]-7-hexyl-5H,6H,7H,8H,9H,10H-cyclohepta[b]indole-4-carboxylic acid], in that order: 87.9% and 95.5%.
For `CCCCC1CCCc2c(n(Cc3ccc(C)cc3)c3c(C(=O)O)cccc23)C1` (stereo not shown) [7-butyl-5-[(4-methylphenyl)methyl]-5H,6H,7H,8H,9H,10H-cyclohepta[b]indole-4-carboxylic acid], in that order: 106% and 92.4%.
For `CCCCC1CCCc2c1n(Cc1cccc(C#N)c1)c1c(C(=O)O)cccc21` (stereo not shown) [1-butyl-9-[(3-cyanophenyl)methyl]-2,3,4,9-tetrahydro-1H-carbazole-8-carboxylic acid], in that order: 58% and 93.7%.
For the compound `CCCCCCC1CCCc2c(n(Cc3ccc(C#N)o3)c3c(C(=O)O)cccc23)C1` (stereo not shown) [5-[(5-cyanofuran-2-yl)methyl]-7-hexyl-5H,6H,7H,8H,9H,10H-cyclohepta[b]indole-4-carboxylic acid], the inhibition at 1 µM was determined as 81.3% and the inhibition at 10 µM is 90%.
As for `NC(=O)c1cccc(Cn2c3c(c4cccc(C(=O)O)c42)C(CCc2ccccc2)CCC3)c1` (stereo not shown) [9-[(3-carbamoylphenyl)methyl]-4-(2-phenylethyl)-2,3,4,9-tetrahydro-1H-carbazole-8-carboxylic acid], the inhibition at 1 µM is 44.1% and the inhibition at 10 µM was found to be 77.9%.
On to `CCCCC1CCCc2c(n(Cc3cccc(OC)c3)c3c(C(=O)O)cccc23)C1` (stereo not shown) [7-butyl-5-[(3-methoxyphenyl)methyl]-5H,6H,7H,8H,9H,10H-cyclohepta[b]indole-4-carboxylic acid], for which the inhibition at 1 µM was found to be 91.7% and the inhibition at 10 µM is 86.5%.
In the case of `CCCCCCC1CCCc2c(n(Cc3ccc(F)cc3)c3c(C(=O)O)cccc23)C1` (stereo not shown) [5-[(4-fluorophenyl)methyl]-7-hexyl-5H,6H,7H,8H,9H,10H-cyclohepta[b]indole-4-carboxylic acid], the inhibition at 1 µM was found to be 74.4% and the inhibition at 10 µM was 77.6%.
For `CCCC1CCc2c1n(Cc1cccc(C(N)=O)c1)c1c(C(=O)O)cccc21` (stereo not shown) [4-[(3-carbamoylphenyl)methyl]-3-propyl-1H,2H,3H,4H-cyclopenta[b]indole-5-carboxylic acid], the inhibition at 1 µM came out at 89.1% and the inhibition at 10 µM turned out to be 95.3%.
As to `CCCCCCC1CCCc2c(n(Cc3cccc(C#N)c3)c3c(C(=O)O)cc(F)cc23)C1` (stereo not shown) [5-[(3-cyanophenyl)methyl]-2-fluoro-7-hexyl-5H,6H,7H,8H,9H,10H-cyclohepta[b]indole-4-carboxylic acid], the inhibition at 1 µM was found to be 87.3% and the inhibition at 10 µM came to 93.9%.
The like results for `CCCCCC1CCCc2c(n(Cc3cccc(C(N)=O)c3)c3c(C(=O)O)cccc23)C1` (stereo not shown) [5-[(3-carbamoylphenyl)methyl]-7-pentyl-5H,6H,7H,8H,9H,10H-cyclohepta[b]indole-4-carboxylic acid] were, in that order, 91.2% and 93.3%.
For the compound `CCCCCCC1CCCc2c(n(Cc3cccnc3)c3c(C(=O)O)cccc23)C1` (stereo not shown) [7-hexyl-5-[(pyridin-3-yl)methyl]-5H,6H,7H,8H,9H,10H-cyclohepta[b]indole-4-carboxylic acid], the inhibition at 1 µM amounted to 105% and the inhibition at 10 µM was determined as 97.3%.
With `CCCCCCC1CCc2c(n(Cc3cccc(C(=O)O)c3)c3c(C(=O)O)cccc23)C1` (stereo not shown) [9-[(3-carboxyphenyl)methyl]-2-hexyl-2,3,4,9-tetrahydro-1H-carbazole-8-carboxylic acid], the inhibition at 1 µM worked out at 23.9% and the inhibition at 10 µM turned out to be 73%.
Regarding `CCCCC1CCCc2c(n(Cc3ccccc3F)c3c(C(=O)O)cccc23)C1` (stereo not shown) [7-butyl-5-[(2-fluorophenyl)methyl]-5H,6H,7H,8H,9H,10H-cyclohepta[b]indole-4-carboxylic acid], the inhibition at 1 µM was determined as 92.1% and the inhibition at 10 µM was found to be 88.1%.
Regarding `CCCCC1CCCc2c1n(Cc1cccc(C(N)=O)c1)c1c(C(=O)O)cccc21` (stereo not shown) [1-butyl-9-[(3-carbamoylphenyl)methyl]-2,3,4,9-tetrahydro-1H-carbazole-8-carboxylic acid], the inhibition at 1 µM was determined as 83% and the inhibition at 10 µM was found to be 86.2%.
For `NC(=O)c1cccc(Cn2c3c(c4cccc(C(=O)O)c42)CCC(CCc2ccccc2)C3)c1` (stereo not shown) [9-[(3-carbamoylphenyl)methyl]-2-(2-phenylethyl)-2,3,4,9-tetrahydro-1H-carbazole-8-carboxylic acid], in that order: 98.4% and 94.1%.
The like results for `CCCCCCC1CCc2c(n(Cc3ccnc(OC)c3)c3c(C(=O)O)cccc23)C1` (stereo not shown) [2-hexyl-9-[(2-methoxypyridin-4-yl)methyl]-2,3,4,9-tetrahydro-1H-carbazole-8-carboxylic acid] were, in that order, 44.2% and 77.8%.
For `N#Cc1cccc(Cn2c3c(c4cccc(C(=O)O)c42)CCCC(CCc2ccccc2)C3)c1` (stereo not shown) [5-[(3-cyanophenyl)methyl]-7-(2-phenylethyl)-5H,6H,7H,8H,9H,10H-cyclohepta[b]indole-4-carboxylic acid], in that order: 93.1% and 94.5%.
Consider `CCCCCC1CCc2c(n(Cc3cccc(C(N)=O)c3)c3c(C(=O)O)cccc23)C1` (stereo not shown) [9-[(3-carbamoylphenyl)methyl]-2-pentyl-2,3,4,9-tetrahydro-1H-carbazole-8-carboxylic acid], for which the inhibition at 1 µM was 75% and the inhibition at 10 µM turned out to be 67%.
On to `CCC1CCCc2c1c1cccc(C(=O)O)c1n2Cc1cccc(C(=O)O)c1` (stereo not shown) [9-[(3-carboxyphenyl)methyl]-4-ethyl-2,3,4,9-tetrahydro-1H-carbazole-8-carboxylic acid], for which the inhibition at 1 µM amounted to 52.1% and the inhibition at 10 µM was 85.4%.
As to `CCCCC1CCCc2c(n(Cc3ccc(C(N)=O)cc3)c3c(C(=O)O)cccc23)C1` (stereo not shown) [7-butyl-5-[(4-carbamoylphenyl)methyl]-5H,6H,7H,8H,9H,10H-cyclohepta[b]indole-4-carboxylic acid], the inhibition at 1 µM is 92.6% and the inhibition at 10 µM is 95.5%.
The like results for `CCCCC1CCCc2c(n(Cc3cccc(C#N)c3)c3c(C(=O)NCC(=O)O)cccc23)C1` (stereo not shown) [2-({7-butyl-5-[(3-cyanophenyl)methyl]-5H,6H,7H,8H,9H,10H-cyclohepta[b]indol-4-yl}formamido)acetic acid] were, in that order, 8.61% and 41%.
With `CCCCCCC1CCc2c(n(Cc3cccc(C(N)=O)c3)c3c(C(=O)O)cccc23)C1` (stereo not shown) [9-[(3-carbamoylphenyl)methyl]-2-hexyl-2,3,4,9-tetrahydro-1H-carbazole-8-carboxylic acid], the inhibition at 1 µM came out at 92.8% and the inhibition at 10 µM was 90.5%.
For `CCCCCCC1CCCc2c(n(C(=O)c3cccc(C#N)c3)c3c(C(=O)O)cccc23)C1` (stereo not shown) [5-(3-cyanobenzoyl)-7-hexyl-5H,6H,7H,8H,9H,10H-cyclohepta[b]indole-4-carboxylic acid], in that order: 87.1% and 88.5%.
The like results for `CCCCCCC1CCCc2c(n(Cc3cccc(C#N)c3)c3c(C(=O)O)cccc23)C1` (stereo not shown) [5-[(3-cyanophenyl)methyl]-7-hexyl-5H,6H,7H,8H,9H,10H-cyclohepta[b]indole-4-carboxylic acid] were, in that order, 94.1% and 88.7%.
In the case of `CCCCCCC1CCCc2c(n(Cc3ccnc(OC)c3)c3c(C(=O)O)cccc23)C1` (stereo not shown) [7-hexyl-5-[(2-methoxypyridin-4-yl)methyl]-5H,6H,7H,8H,9H,10H-cyclohepta[b]indole-4-carboxylic acid], the inhibition at 1 µM was 78.1% and the inhibition at 10 µM amounted to 82.8%.
For `CCC1CCc2c(c3cccc(C(=O)O)c3n2Cc2cccc(C(N)=O)c2)C1` (stereo not shown) [9-[(3-carbamoylphenyl)methyl]-3-ethyl-2,3,4,9-tetrahydro-1H-carbazole-8-carboxylic acid], in that order: 98.2% and 103%.
For `CCC1CCc2c(n(Cc3cccc(C(=O)O)c3)c3c(C(=O)O)cccc23)C1` (stereo not shown) [9-[(3-carboxyphenyl)methyl]-2-ethyl-2,3,4,9-tetrahydro-1H-carbazole-8-carboxylic acid], in that order: 23.5% and 69.2%.
For `CCCCC1CCCc2c(n(Cc3ccccc3C(N)=O)c3c(C(=O)O)cccc23)C1` (stereo not shown) [7-butyl-5-[(2-carbamoylphenyl)methyl]-5H,6H,7H,8H,9H,10H-cyclohepta[b]indole-4-carboxylic acid], in that order: 71.3% and 94.5%.

The inhibition is the relative decrease from the control value, in per cent.

Source of the values: US12084419B2, “Cell metabolism modulating compounds and uses thereof” (CRESCENTA BIOSCIENCES, priority 2020, dated 2024).
